Data: US20260130857A1, “SUSTAINED-RELEASE INJECTABLE COMPOSITION FOR TREATING OR PREVENTING INFLAMMATORY DISEASE, AND METHOD FOR PREPARING SAME” (INVENTAGE LAB INC., priority 2022, published 2026)

Key:
MIA-OA model [1] = test: Trial for treatment of osteoarthritis (OA): weight-bearing and paw withdrawal tests taken together; format: in vivo, rats
Method: (§1) After acclimatization, rats were divided into groups, and the area around the left lower limb knee joint of each rate was shaved clean. Then, MIA (monosodium iodoacetate, Sigma, USA), an osteoarthritis-inducing substance, was prepared at a concentration of 60 mg/mL in 0.9% sterile saline and 50 μL was administered intra-articularly to each rat using a BD Ultra-Fine™ II Insulin Syringe. The right knee joint was administered only the same volume of 0.9% sterile saline. Two weeks after MIA administration, the test substances shown in Table 5 below were administered intra-articularly, and the therapeutic efficacy thereof was evaluated.
(§2) CBD solution and Examples 2 to 4 were each administered to the left knee joint cavity 14 days after MIA administration, and only the same amount of 0.9% sterile saline was administered to the right knee joint. The normal control and positive control groups were also administered the same amount of 0.9% saline.

[2] = Rat pharmacokinetic test, single subcutaneous injection; set-up: species or system SD rats; details: male, SD, in vivo, CBD solution 300 μg/head, IVL5005 9 mg/head, rat serum, read-out: blood CBD concentration
From the text: The experimental conditions for conducting the rat pharmacokinetic test are as follows:
CBD isolate solution was used as a control. As experimental animals, 6-week-old male SD rats were purchased from Coretech, acclimated for a week, and then tested. The experimental diet was a general feed for experimental animals (Orient), and the rats were raised with free access to water and feed.
At a total of 14 time points, including time 0 (before SC administration of the test substance to the acclimated rats) and 4 hr, 8 hr, 24 hr, 3 d, 5 d, 1 w, 2 w, 4 w, 6 w, 8 w, and 12 w after SC administration of the test substance, 500 to 1,000 μL of blood was sampled from the jugular vein at each time point, and then immediately, the blood was centrifuged at 1,000 g for 10 minutes to separate the serum, which was then frozen and stored at −70° C.

MIA-OA model [3] = test: Paw withdrawal threshold test in osteoarthritis model; format: in vivo, rats; details: thereafter (later than 2 hours after administration)
Method: as §1, with “evaluated. […]” for “evaluated.”
The paw withdrawal response was measured before MIA administration (day 0) and 7 days and 14 days after MIA administration (before test drug administration), and the paw withdrawal response was evaluated after applying mechanical stimulation using an electronic von-Frey aesthesiometer (IITC Life Science, USA) 2 hours, 4 hours, 4 days, 7 days, 11 days, 14 days, 21 days, and 28 days after test drug administration. […] In the measurement method, an electronic von-Frey filament was applied perpendicular to the sole of the paw, the threshold (g force) value at which a rapid withdrawal response occurred was measured. The measurement results were analyzed as the ratio of g forces measured on the left and right paws (left/right). […]

[4] = Body weight measurement in MIA-induced osteoarthritis trial; format: in vivo; details: MIA rats, single IA dose: CBD solution 300 ug/joint, Examples 2 and 4 2 mg/joint, Example 3 1 mg/joint; test period
Method: as §1, §2
However, when CBD was administered, it was confirmed that the body weight gain increased compared to that in the positive control as feed intake activity was improved due to a decrease in pain. This tendency was particularly significant in Examples 3 and 4.

Compound: C=C(C)[C@@H]1CCC(C)=C[C@H]1c1c(O)cc(CCCCC)cc1O [CBD solution, Cannabidiol]
- therapeutic effect compared to the PC group (MIA-OA model [1]; after the early stage / long term (to day 28)): no difference from the PC group
- therapeutic effect compared to the PC group (MIA-OA model [1]; early stage of administration): showed an effect
- concentration at 1 w ([2]; 1 w after single SC): 361 ng/mL
- concentration at 2 w ([2]; 2 w after single SC): 0 ng/mL
- concentration at 4 w ([2]; 4 w after single SC): 0 ng/mL
- concentration at 7 w ([2]; 7 w after single SC): 0 ng/mL
- concentration at 1 d ([2]; 1 d after single SC): 3940 ng/mL
- paw withdrawal threshold ratio compared to control group (MIA-OA model [3]): no difference
- body weight gain compared to positive control group [4]: tended to increase
